Laboratory results published in patent US20180092360A1, “MICROBICIDAL COMPOSITION” (Dow Global Technologies LLC, priority 2015, published 2018).
Where two headings read alike, the source gives them in different places.

Test system: bacterial pool of seven organisms
Test: Dow time-kill test in pH 7.4 hand dish-washing liquid, with Kull synergy index
Type: cell-based
Conditions: for Concentration required to achieve >=4 Log bacterial counts reduction: bacterial pool, pH 7.4 hand dish-washing liquid, 37° C., active ingredient basis
Protocol: Four biocides and their combinations were tested at different concentration ranges. […] All biocide solutions were prepared and diluted in sterile DI water and used within 2 hours. These biocides are commercially available from The Dow Chemical Company. [table] A bacteria pool was used for testing. 24 hr bacterial cultures were obtained in TSB (Tryptic Soy Broth) media at 37° C. incubation for the seven organisms. The bacterial pool of seven organisms was prepared by taking equal parts of a 24 hour stationary phase aliquot from each bacterial culture and mixing them together. […] The time-kill tests were carried out to determine the threshold concentration of the biocide products in pH 7.4 hand dish-washing liquid. […] Biocides were then added into this bacterial suspension at various levels and mixed immediately. The mixed samples were then incubated at 37° C. At 24 hrs, viable bacteria remaining in the hand dish-washing samples were determined by 1:10 serial dilutions, transferring 20 ul aliquot of each sample into 180 ul TSB/Resazurin media. Triplicate tests were conducted. MPN method was used to determine the microbial concentration at after 24 hours incubation at 37° C. […] One measure of synergism is the industrially accepted method described by Kull, […]. and Mayer, R. L., in Applied Microbiology 9:538-541 (1961), using the ratio determined by the formula: Qa/QA+Qb/QB=Synergy Index (“SI”) wherein: • QA=concentration of compound A (first component) in ppm, acting alone, which produced an end point (MIC of Compound A). • Qa=concentration of compound A in ppm, in the mixture, which produced an end point. • QB=concentration of compound B (second component) in ppm, acting alone, which produced an end point (MIC of Compound B). • Qb=concentration of compound B in ppm, in the mixture, which produced an end point. When the sum of Qa/QA and Qb/QB is greater than one, antagonism is indicated. […] The lower the SI, the greater the synergy shown by that particular mixture. The minimum inhibitory concentration (MIC) of a microbicide is the lowest concentration tested under a specific set of conditions that prevents the growth of added microorganisms.

Row | SMILES | Concentration required to achieve >=4 Log bacterial counts reduction (24 h) [ppm] | MIC (Bacterial Pool, 24 hours, BIT alone (QA) or BIT in mixture with SOPP (Qa), read-out: Minimum Inhibitory Concentration (ppm) BIT) [µg/mL] | MIC (24 h, read-out: Minimum Inhibitory Concentration (ppm) MIT) [µg/mL] | Minimum Inhibitory Concentration (ppm) SOPP (Bacterial Pool, 24 hours, SOPP alone (QB) or SOPP in mixture with BIT (Qb)) [ppm] | Minimum Inhibitory Concentration (ppm) SOPP (Bacterial Pool, 24 hours, SOPP alone (QB) or SOPP in mixture with CMIT/MIT (Qb)) [ppm] | Minimum Inhibitory Concentration (ppm) SOPP (Bacterial Pool, 24 hours, SOPP alone (QB) or SOPP in mixture with MIT (Qb)) [ppm]
1 | O=c1[nH]sc2ccccc12 [BIT, 1,2-benzisothiazol-3-one] | 400 | 400 | – | – | – | –
2 | Cn1sccc1=O [MIT, 2-Methylisothiazol-3-one] | >95 | – | > 95 | – | – | –
3 | [Na+].[O-]c1ccccc1-c1ccccc1 [SOPP, sodium orthophenylphenate] | 358.5 | – | – | 358.5 | 358.5 | 358.5
